Values of other authors, collected in patent publication US20250230478A1, “COMBINATION OF NUCLEIC ACID SEQUENCES ENCODING PROTEINS DERIVED FROM HELICHRYSUM UMBRACULIGERUM, AND ANY […], TISSUE, AND ORGANISM COMPRISING SAME” (YEDA RESEARCH AND DEVELOPMENT CO. LTD., priority 2022, published 2025).

What was measured:
[1] = test system: α2-adrenergic receptor
[2] = biological target: T1, 5-HT1A receptor (Homo sapiens, UniProt P08908)
T1 sequence (P08908 1-422): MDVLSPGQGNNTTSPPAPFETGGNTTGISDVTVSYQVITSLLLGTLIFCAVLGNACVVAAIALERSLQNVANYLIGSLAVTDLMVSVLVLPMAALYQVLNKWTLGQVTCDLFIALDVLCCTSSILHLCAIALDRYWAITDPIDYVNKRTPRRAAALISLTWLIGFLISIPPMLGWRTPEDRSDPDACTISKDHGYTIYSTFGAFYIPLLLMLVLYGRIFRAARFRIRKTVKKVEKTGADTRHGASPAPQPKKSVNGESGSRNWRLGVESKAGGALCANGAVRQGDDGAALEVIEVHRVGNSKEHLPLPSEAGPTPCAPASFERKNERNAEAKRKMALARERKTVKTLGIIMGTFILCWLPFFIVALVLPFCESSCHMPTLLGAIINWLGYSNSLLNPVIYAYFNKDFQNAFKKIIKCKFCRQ

[3] = biological target: CB1 receptor (Homo sapiens, UniProt P21554)
CB1 receptor, sequence (P21554 whole entry): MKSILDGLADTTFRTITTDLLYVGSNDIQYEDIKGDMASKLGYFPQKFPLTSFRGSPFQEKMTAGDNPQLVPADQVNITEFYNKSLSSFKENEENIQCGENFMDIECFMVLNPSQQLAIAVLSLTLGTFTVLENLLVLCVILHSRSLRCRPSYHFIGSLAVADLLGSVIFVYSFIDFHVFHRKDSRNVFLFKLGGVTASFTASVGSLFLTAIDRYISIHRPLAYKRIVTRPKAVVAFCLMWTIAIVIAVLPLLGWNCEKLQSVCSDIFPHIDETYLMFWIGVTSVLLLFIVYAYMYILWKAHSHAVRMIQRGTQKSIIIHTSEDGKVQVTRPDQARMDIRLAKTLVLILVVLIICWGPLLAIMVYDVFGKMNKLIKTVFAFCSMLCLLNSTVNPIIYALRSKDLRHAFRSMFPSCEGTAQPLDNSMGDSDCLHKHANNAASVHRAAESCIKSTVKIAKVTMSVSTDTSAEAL

## CCCCCc1cc(O)c(C/C=C(\C)CCC=C(C)C)c(O)c1 [CBG, cannabigerol]
[1]
  affinity as α2-adrenergic receptor agonist: high affinity
[2]
  affinity as 5-HT1A receptor antagonist: moderate affinity
[3]
  affinity as CB1 receptor antagonist: low affinity
